Test results taken from ChEMBL document CHEMBL2073999, “Vectorial transport by double-transfected cells expressing the human uptake transporter SLC21A8 and the apical export pump ABCC2” (Mol Pharmacol, 2001).

Tested on: MDCK-II
Assay: TP_TRANSPORTER: transepithelial transport in OATP1B3/MRP2 double transfectant (MDCKII)
Type: functional, cell-based

With `CCCCC/C=C\C\C=C/C=C/C=C/[C@@H](SC[C@@H](NC(=O)CC[C@H](N)C(=O)O)C(=O)NCC(=O)O)[C@@H](O)CCCC(=O)O` the Activity was “substrate []”.
`C[C@]12CC[C@@H]3c4ccc(O)cc4CC[C@H]3[C@@H]1CC[C@@H]2O[C@@H]1O[C@H](C(=O)O)[C@@H](O)[C@H](O)[C@H]1O` was tested, and the Activity was “substrate []”.
For `C[C@]12CC[C@H](OS(=O)(=O)O)CC1=CC[C@@H]1[C@@H]2CC[C@]2(C)C(=O)CC[C@@H]12`, the Activity was “substrate []”.
For `Cc1ccc(N(CC(=O)O)CC(=O)O)c(OCCOc2cc(-c3c4cc(Cl)c(=O)cc-4oc4cc(O)c(Cl)cc34)ccc2N(CC(=O)O)CC(=O)O)c1`, the Activity was “substrate []”.
For `CO[C@H]1/C=C/O[C@@]2(C)Oc3c(C)c(O)c4c(O)c(c(/C=N/N5CCN(C)CC5)c(O)c4c3C2=O)NC(=O)/C(C)=C\C=C\[C@H](C)[C@H](O)[C@@H](C)[C@@H](O)[C@@H](C)[C@H](OC(C)=O)[C@@H]1C`, the Activity was “substrate []”.
`O=C1OC(c2ccc(O)c(S(=O)(=O)O)c2)(c2ccc(O)c(S(=O)(=O)O)c2)c2c(Br)c(Br)c(Br)c(Br)c21` was tested, and the Activity was “substrate []”.
